Data published in patent US8288375B2, “Fungicidal bicyclic pyrazoles” (E.I. du Pont de Nemours and Company, priority 2007, dated 2012).

Experiments:
Assay type in all cases: in vivo
[1] = system: Erysiphe graminis f. sp. tritici; test: Test A: wheat powdery mildew, test suspension sprayed on wheat seedlings, disease rating; conditions: 200 ppm test suspension, 100 = 100% disease control, 0 = no control
[2] = system: Puccinia recondite f sp. tritici; test: Test B: wheat leaf rust, test suspension sprayed on wheat seedlings, disease rating; conditions: 200 ppm test suspension;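 note: 200 ppm unless marked * meaning 40 ppm or ** meaning 10 ppm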
Fusarium graminearum = test: whole plant or invertebrate; conditions: for Test C disease control rating: 200 ppm test suspension
Septoria nodorum = test: Test D: wheat glume blotch, test suspension sprayed on wheat seedlings, disease rating; conditions: 200 ppm test suspension
Septoria tritici = test: Test E: wheat leaf blotch, test suspension sprayed on wheat seedlings, disease rating; conditions: 200 ppm test suspension;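 note: 200 ppm unless marked * meaning 40 ppm or ** meaning 10 ppm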
Phytophthora infestans = test: whole plant or invertebrate; conditions: for Test J disease control rating: 200 ppm test suspension
Pythium aphanidermatum = test: Test L: bluegrass pythium blight, test suspension sprayed on bluegrass seedlings, disease rating; conditions: 200 ppm test suspension;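 note: 200 ppm unless marked * meaning 40 ppm or ** meaning 10 ppm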

Structure (SMILES)	Test A disease control rating [1]	Test B disease control rating [2]	Test C disease control rating (Fusarium graminearum)	Test D disease control rating (Septoria nodorum)	Test E disease control rating (Septoria tritici)	Test J disease control rating (Phytophthora infestans)	Test L disease control rating (Pythium aphanidermatum)	pest or weed control at 200 ppm ([1]; Blumeria graminis, 192 h)	pest or weed control at 200 ppm ([2]; Puccinia, 192 h)	pest or weed control at 200 ppm (Fusarium graminearum; Fusarium graminearum, in Triticum aestivum, 192 h, read-out: Test C disease control rating)	pest or weed control at 200 ppm (Septoria nodorum; Parastagonospora nodorum, 216 h)	pest or weed control at 200 ppm (Septoria tritici; Zymoseptoria tritici, 504 h)	pest or weed control at 200 ppm (Phytophthora infestans; Phytophthora infestans, in Solanum lycopersicum, 120 h, read-out: Test J disease control rating)	pest or weed control at 200 ppm (Pythium aphanidermatum; Pythium aphanidermatum, 120 h)
COc1nccc(-c2c(-c3ccc(F)cc3)nn3c2CCCC3)n1 [Compound 105]	0%	94%	94%	78%	100%	73%	0%							
Fc1ccc(Nc2nccc(-c3c(-c4ccc(F)cc4)nn4c3CCCC4)n2)cc1 [compound 40]	0%	85%	84%	99%	98%	0%	0%							
OCC(CO)Nc1nccc(-c2c(-c3ccc(F)cc3)nn3c2CCCC3)n1 [compound 63]	81%	91%	0%	0%	82%	9%	100%							
CC(C)CNc1nccc(-c2c(-c3ccc(F)cc3)nn3c2CCCC3)n1 [compound 29]	0%	95%	100%	98%	85%	47%	0%							
CC(C)Nc1nccc(-c2c(-c3ccsc3)nn3c2COCC3)n1 [compound 118]	0%	86%	98%	78%	82%	80%	99%							
CC(CO)Nc1nccc(-c2c(-c3ccccc3F)nn3c2CCCC3)n1 (centres unmarked) [compound 38]	0%	94%	96%	64%	92%	95%	99%							
COCC(C)Nc1nccc(-c2c(-c3ccc(F)cc3F)nn3c2CSC3)n1 (centres unmarked) [Compound 83, 4-[2-(2,4-difluorophenyl)-4H,6H-pyrazolo[1,5-c]thiazol-3-yl]-N-(2-methoxy-1-methylethyl)-2-pyrimidinamine]								0%	0%	0%	60%	67%	93%	99%
CC(C)Nc1nccc(-c2c(-c3ccc(F)cc3)nn3c2CSCC3)n1 [compound 110]	0%	95%	92%	60%	17%	99%	100%							
CC(COC(=O)CCC(=O)O)Nc1nccc(-c2c(-c3ccc(F)cc3)nn3c2CCCC3)n1 (centres unmarked) [compound 66]	0%	88%	83%	0%	72%	97%	100%							
CC(CO)Nc1nccc(-c2c(-c3ccccc3)nn3c2COCC3)n1 (centres unmarked) [compound 122]	0%	96%	99%	73%	80%	99%	100%							
Fc1cccc(-c2nn3c(c2-c2ccnc(NC4CC4)n2)CCC3)c1 [compound 103]	85%	95%	99%	99%	100%	99%	100%							
